Measured values published in patent US12528773B2, “Non-lysosomal glucosylceramidase inhibitors and uses thereof” (ALECTOS THERAPEUTICS INC., priority 2020, dated 2026).
Where two headings read alike, the source gives them in different places.

Tests used:
Assay type in all cases: biochemical
GBA2 [1] = target: T1, GBA2 (Homo sapiens (Human), UniProt Q9HCG7); assay: Binding specificity for GBA2 over other molecules, Ki or IC50 ratio
Text: In some embodiments, one or more of the compounds according to the invention may specifically bind a GBA2. In alternative embodiments, one or more of the compounds according to the invention may specifically bind the active site of a GBA2. […] In alternative embodiments, one or more of the compounds according to the invention may specifically bind the human non-lysosomal glucosylceramidase (GBA2) over the human lysosomal glucosylceramidase (GCase) and/or the human cytosolic glucosylceramidase (GBA3). In alternative embodiments, one or more of the compounds according to the invention may specifically bind the human non-lysosomal glucosylceramidase (GBA2) over the human glucosylceramide synthase (GCS). In alternative embodiments, one or more of the compounds according to the invention may specifically bind the human non-lysosomal glucosylceramidase (GBA2) over an intestinal alpha-glucosidase, where the intestinal alpha-glucosidase may be a sucrase-isomaltase or a maltase-glucoamylase.

[2] = test system: rat intestinal alpha-glucosidases; assay: Inhibition of rat intestinal alpha-glucosidases (rat intestinal lysate, glucose detection); conditions: compound concentration 25 μM, sucrose as substrate
Protocol: Assay for Determination of Inhibition of Rat Intestinal Alpha-Glucosidases
Various concentrations of test compounds were prepared in DMSO and then diluted into buffer consisting of 100 mM citric acid, 200 mM disodium phosphate, pH 6.0. Rat intestinal acetone powder (Sigma) was dissolved to 12.5 mg/mL in assay buffer and sonicated in an ice bath, centrifuged, and the supernatant was collected, aliquoted and stored at −20° C. until use. On the day of the assay, the rat intestinal lysate was diluted to 6.25 mg/mL (sucrose reactions) and 2.1 mg/ml (maltose reactions) in assay buffer. The final reaction solutions for sucrose contained 2.1 mg/mL rat intestinal lysate, 40 mM sucrose, 50 or 25 μM of test compound, and 3.3% DMSO. The final reaction solution for maltose contained 0.69 mg/mL rat intestinal lysate, 10 mM maltose, 50 or 25 μM of test compound, and 3.3% DMSO. The reaction was initiated by the addition of substrate (sucrose or maltose) and allowed to proceed at 37° C. for 20 min to assess rat intestinal alpha-glycosidase activities. The reaction was stopped by addition of 20 μL of 2 M Tris-HCl, pH 7.0. The glucose produced during the reaction was detected using a commercial Amplex Red glucose detection kit from Thermo Fisher. For a full plate, the Amplex Red detection mixture was prepared by mixing 35 μL glucose oxidase, 35 μL horseradish peroxidase and 35 μL Amplex Red into 3395 μL 1× Amplex Red detection buffer. A total of 30 μL of detection mixture was added to each well. Fluorescence was measured in kinetic mode on a Biotek Synergy H4 plate reader at a wavelength of 573 nm for excitation and 610 nm for emission for 15 min and quantified from the data at 10 min. Incubations without added rat intestinal lysate were used to correct for the background amount of glucose present in the samples. Incubations without added test compound were used to define maximal enzyme activity. Percent inhibition of rat intestinal alpha-glucosidases was determined by dividing the amount of glucose detected in the presence of test compound by the amount of glucose detected in the maximal enzyme activity wells. All conditions were analyzed in triplicate. […] The final reaction solutions were the same as described above for the Amplex Red Detection kit. After a 20 min reaction time at 37° C., 100 μL of hexokinase glucose reagent was added to all test wells except for the no enzyme added control wells and no test compound added wells. The plate was incubated for a further 15 min at room temperature and the absorbance was read at 340 nm on a Biotek Synergy H4 plate reader. The percent inhibition of rat intestinal alpha-glucosidases was determined in a similar manner as described above.

GBA2 [3] = target: T1, GBA2; assay: Inhibition of GBA2 in cell lysate (4-methylumbelliferone glucopyranoside substrate);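 further: homogenate of stably transfected HEK293T cells pre-treated with a GCase inhibitor, test compound preincubated 5 min at 37 °C, substrate reaction 20 min at 37 °C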
[4] = HEK293T-overexpressing GBA2 cellular homogenate, pH 5.5, read-out: GBA2 IC50

T1 sequence (Q9HCG7 whole entry): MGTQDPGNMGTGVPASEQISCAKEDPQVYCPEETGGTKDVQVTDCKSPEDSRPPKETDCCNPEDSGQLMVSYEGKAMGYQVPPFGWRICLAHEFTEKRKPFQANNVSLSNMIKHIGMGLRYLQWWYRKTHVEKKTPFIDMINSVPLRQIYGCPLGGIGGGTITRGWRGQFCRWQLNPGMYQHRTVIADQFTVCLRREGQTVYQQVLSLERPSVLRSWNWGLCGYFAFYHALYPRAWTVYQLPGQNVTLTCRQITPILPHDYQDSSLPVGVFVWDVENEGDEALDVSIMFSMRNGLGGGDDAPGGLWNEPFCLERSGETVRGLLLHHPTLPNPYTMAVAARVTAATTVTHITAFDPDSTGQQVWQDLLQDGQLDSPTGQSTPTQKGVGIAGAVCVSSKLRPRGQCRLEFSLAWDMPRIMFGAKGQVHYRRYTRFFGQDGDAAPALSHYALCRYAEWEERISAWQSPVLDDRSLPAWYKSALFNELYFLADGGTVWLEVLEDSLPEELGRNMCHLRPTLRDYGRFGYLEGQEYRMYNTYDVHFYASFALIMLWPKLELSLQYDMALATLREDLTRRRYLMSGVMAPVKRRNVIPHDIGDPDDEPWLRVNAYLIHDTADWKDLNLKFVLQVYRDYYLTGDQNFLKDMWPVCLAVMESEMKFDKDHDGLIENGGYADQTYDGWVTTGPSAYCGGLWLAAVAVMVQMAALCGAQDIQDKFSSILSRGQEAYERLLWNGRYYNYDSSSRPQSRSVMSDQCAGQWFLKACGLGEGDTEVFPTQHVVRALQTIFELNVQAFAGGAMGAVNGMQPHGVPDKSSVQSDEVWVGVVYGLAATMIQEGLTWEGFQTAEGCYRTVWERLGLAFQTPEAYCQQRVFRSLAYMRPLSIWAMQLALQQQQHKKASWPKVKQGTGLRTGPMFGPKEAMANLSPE

SMILES	binding specificity, IC50(other molecule)/IC50(GBA2) or Ki ratio (GBA2 [1])	rat α-glu. (% inhib.) [2] [%]	IC50 (GBA2 [3]; [4]) [nM]	IC50 (GBA2 [3]) [nM]
O[C@H]1[C@H](O)CN(C[C@H]2CCCN(c3cccc4scnc34)C2)C[C@@H]1O [Example 35, (3S,4R,5R)-1-(((R)-1-(benzo[d]thiazol-4-yl)piperidin-3-yl)methyl)piperidine-3,4,5-triol]	enhanced binding specificity	7	< 100	–
Cc1noc(C)c1-c1cc(F)c(CCN2C[C@@H](O)[C@H](O)[C@@H](O)C2)c(F)c1 [Example 14, (3S,4r,5R)-1-(4-(3,5-dimethylisoxazol-4-yl)-2,6-difluorophenethyl)piperidine-3,4,5-triol]	enhanced binding specificity	2	< 100	–
CC(C)(F)[C@H]1CC[C@@H](CN2C[C@@H](O)[C@H](O)[C@@H](O)C2)CC1 [Example 3, (3S,4R,5R)-1-(((1s,4S)-4-(2-fluoropropan-2-yl)cyclohexyl)methyl)piperidine-3,4,5-triol]	enhanced binding specificity	1	< 100	–
O[C@H]1[C@H](O)CN(C[C@@H]2CCCN(c3cnccc3C(F)(F)F)C2)C[C@@H]1O [Example 38, (3S,4S,5R)-1-(((S)-1-(4-(trifluoromethyl)pyridin-3-yl)piperidin-3-yl)methyl)piperidine-3,4,5-triol]	enhanced binding specificity	0	< 100	–
O[C@H]1[C@H](O)CN(C[C@H]2CC[C@@H](C(F)(F)F)CC2)C[C@@H]1O [Example 2, (3S,4R,5R)-1-(((1s,4S)-4-(trifluoromethyl)cyclohexyl)methyl)piperidine-3,4,5-triol]	enhanced binding specificity	4	< 100	–
O[C@H]1[C@H](O)CN(CCc2c(F)cc(N3CCCC3)cc2F)C[C@@H]1O [Example 10, (3S,4r,5R)-1-(2,6-difluoro-4-(pyrrolidin-1-yl)phenethyl)piperidine-3,4,5-triol]	enhanced binding specificity	7	< 100	–
O[C@H]1[C@H](O)CN(CCc2c(F)cc(N3CCCCC3)cc2F)C[C@@H]1O [Example 11, (3S,4r,5R)-1-(2,6-difluoro-4-(piperidin-1-yl)phenethyl)piperidine-3,4,5-triol]	enhanced binding specificity	10	< 100	–
O[C@H]1[C@H](O)CN(CCc2c(F)cc(C3CCOCC3)cc2F)C[C@@H]1O [Example 13, (3S,4r,5R)-1-(2,6-difluoro-4-(tetrahydro-2H-pyran-4-yl)phenethyl)piperidine-3,4,5-triol]	enhanced binding specificity	5	< 100	–
O[C@H]1[C@H](O)CN(C[C@H]2CCCN(c3nc4ccccc4s3)C2)C[C@@H]1O [Example 34, (3S,4R,5R)-1-(((R)-1-(benzo[d]thiazol-2-yl)piperidin-3-yl)methyl)piperidine-3,4,5-triol]	enhanced binding specificity	2	< 100	–
Cc1n[nH]c(C)c1-c1cc(F)c(CCN2C[C@@H](O)[C@H](O)[C@@H](O)C2)c(F)c1 [Example 15, (3S,4r,5R)-1-(4-(3,5-dimethyl-1H-pyrazol-4-yl)-2,6-difluorophenethyl)piperidine-3,4,5-triol]	enhanced binding specificity	8	< 100	–
O[C@H]1[C@H](O)CN(CCc2c(F)ccc(Cl)c2F)C[C@@H]1O [Example 7, (3S,4r,5R)-1-(3-chloro-2,6-difluorophenethyl)piperidine-3,4,5-triol]	enhanced binding specificity	0	< 100	–
O[C@H]1[C@H](O)CN(C[C@H]2CC[C@H](C(F)(F)F)CC2)C[C@@H]1O [Example 1, (3S,4R,5R)-1-(((1r,4R)-4-(trifluoromethyl)cyclohexyl)methyl)piperidine-3,4,5-triol]	enhanced binding specificity	0	< 100	–
O[C@H]1[C@H](O)CN(C[C@@H]2CCCN(c3ncccc3C(F)(F)F)C2)C[C@@H]1O [Example 36, (3S,4S,5R)-1-(((S)-1-(3-(trifluoromethyl)pyridin-2-yl)piperidin-3-yl)methyl)piperidine-3,4,5-triol]	enhanced binding specificity	0	< 100	–
O[C@H]1[C@H](O)CN(C[C@H]2CCCN(c3ncccc3C(F)(F)F)C2)C[C@@H]1O [Example 29, (3S,4R,5R)-1-(((R)-1-(3-(trifluoromethyl)pyridin-2-yl)piperidin-3-yl)methyl)piperidine-3,4,5-triol]	enhanced binding specificity	4	< 100	–
O[C@H]1[C@H](O)CN(C[C@H]2CCN(c3cnccc3C(F)(F)F)C2)C[C@@H]1O [Example 20, (3S,4R,5R)-1-(((R)-1-(4-(trifluoromethyl)pyridin-3-yl)pyrrolidin-3-yl)methyl)piperidine-3,4,5-triol]	enhanced binding specificity	4	< 100	–
O[C@H]1[C@H](O)CN(C[C@H]2CCCN(c3cccc(C(F)(F)F)n3)C2)C[C@@H]1O [Example 30, (3S,4R,5R)-1-(((R)-1-(6-(trifluoromethyl)pyridin-2-yl)piperidin-3-yl)methyl)piperidine-3,4,5-triol]	enhanced binding specificity	6	< 100	–
O[C@H]1[C@H](O)CN(C[C@H]2CCN(c3nc(C(F)(F)F)cs3)C2)C[C@@H]1O [Example 21, (3S,4R,5R)-1-(((R)-1-(4-(trifluoromethyl)thiazol-2-yl)pyrrolidin-3-yl)methyl)piperidine-3,4,5-triol]	enhanced binding specificity	6	< 100	–
O[C@H]1[C@H](O)CN(CCc2c(F)cc(N3CCOCC3)cc2F)C[C@@H]1O [Example 12, (3S,4r,5R)-1-(2,6-difluoro-4-morpholinophenethyl)piperidine-3,4,5-triol]	enhanced binding specificity	4	< 100	–
O[C@H]1[C@H](O)CN(C[C@@H]2CCN(c3ccc(C(F)(F)F)cn3)C2)C[C@@H]1O [Example 161, (3S,4S,5R)-1-(((S)-1-(5-(trifluoromethyl)pyridin-2-yl)pyrrolidin-3-yl)methyl)piperidine-3,4,5-triol]	–	0	< 100	–
CCCCCOc1ccc(CN2C[C@@H](O)[C@H](O)[C@@H](O)C2)cc1 [Example 198, (3S,4r,5R)-1-(4-(pentyloxy)benzyl)piperidine-3,4,5-triol]	–	12	< 100	–
O[C@H]1[C@H](O)CN(CC2(F)CCN(c3ccccc3C(F)(F)F)CC2)C[C@@H]1O [Example 193, (3S,4r,5R)-1-((4-fluoro-1-(2-(trifluoromethyl)phenyl)piperidin-4-yl)methyl)piperidine-3,4,5-triol]	–	2	< 100	–
CC(Cc1cccc(Cl)c1F)N1C[C@@H](O)[C@H](O)[C@@H](O)C1 (stereo partly drawn) [Example 16, (3S,4r,5R)-1-(1-(3-chloro-2-fluorophenyl)propan-2-yl)piperidine-3,4,5-triol]	–	7	–	100 to 1000
